# Test results: US4508926A, “4-Hydroxy-benzhydrols, process for their preparation and pharmaceutical compositions containing them” (Richter Gedeon Vegyeszeti Gyar Rt., priority 1982, dated 1985)
# Assays:
# ethanolic narcosis = test: Ethanolic narcosis period in rats (righting reflex); assay type: in vivo, Hann.-Wistar rats; conditions: 1 h before ethanol i.p., n=10, control 100 ± 5.2
# Description: The animals were treated with various doses of the compounds of the formula (I) in groups of ten, orally, One hour after treatment the rats were treated with […]. of ethanol intraperitoneally (i.p.). The narcosis period of the animals was measured from the elapse of the righting reflex until a spontaneous correction of the body position. The average of the narcosis period and the percentage difference from the control were calculated. The control group was treated with placebo and […]. of ethanol.
# [1] = Acute oral toxicity, 14 days observation; conditions: rat, in vivo, 500 mg/kg
# [2] = tested on: alcoholic intoxication, narcosis; conditions: in vivo; cited from earlier work
# [3] = tested on: spontaneous locomotoric activity; conditions: in the dose range that normalizes ethanolic hyperactivity; cited from earlier work
# [4] = tested on: ethanolic locomotoric hyperactivity; conditions: mice; in a dose range which decreases spontaneous locomotoric activity; cited from earlier work
smiles,measurement,setting,value
"CCC(O)(c1ccc(O)cc1)c1ccccc1C(F)(F)F (stereo not drawn) [A, 2-trifluoromethyl-4'-hydroxy-α-ethyl-benzhydrol]","Ethanolic narcosis period, x ± S.E.",ethanolic narcosis; 5.0 mg./kg. orally,69 ± 4.5
same,"Ethanolic narcosis period, x ± S.E.",ethanolic narcosis; 20.0 mg./kg. orally,52 ± 6.0
same,"Ethanolic narcosis period, x ± S.E.",ethanolic narcosis; 40.0 mg./kg. orally,39 ± 3.4
same,mortality at 336 h,[1],0%
"CCC(O)(c1ccc(O)cc1)c1cccc(Cl)c1 (stereo not drawn) [B, 3-chloro-4'-hydroxy-α-ethyl-benzhydrol]","Ethanolic narcosis period, x ± S.E.",ethanolic narcosis; 40.0 mg./kg. orally,60 ± 7.5
same,mortality at 336 h,[1],0%
"N[C@@H](CS)C(=O)O [L-cysteine, reference compound]","Ethanolic narcosis period, x ± S.E.",ethanolic narcosis; 500.0 mg./kg.,63 ± 4.2
same,"Ethanolic narcosis period, x ± S.E.",ethanolic narcosis; 1000.0 mg./kg.,66 ± 5.9
same,"Alcoholic intoxication, narcosis",[2],shortened
CC(N)(Cc1ccc(O)cc1)C(=O)O (stereo not drawn) [α-Methyl-para-tyrosine],Spontaneous locomotoric activity,[3],decreases the spontaneous locomotoric activity
same,Ethanolic locomotoric hyperactivity,[4],normalizes the ethanolic locomotoric hyperactivity
